Read-outs that look alike come from different tables or passages of the source.
Columns and labels:
[1] = Measurement of transferability into brain and clearance; details: rats, intravenous injection (tail vein); for Radioactive accumulation per unit weight of brain, after 2 min.: 2 min after injection; for Radioactive accumulation per unit weight of brain, after 5 min.: 5 min after injection; for Radioactive accumulation per unit weight of brain, after 30 min.: 30 min after injection; for Radioactive accumulation per unit weight of brain, after 60 min.: 60 min after injection
Description: The rats were sacrificed by bleeding from abdominal artery, and brains were removed and subjected to measurement of mass of brains and further subjected to measurement of radioactivity (hereinafter referred to as A in this Example) with a single channel analyzer (detector type: SP-20 manufactured by OHYO KOKEN KOGYO Co., Ltd.) 2, 5, 30 and 60 minutes after the injection. Also, radioactivity (hereinafter referred to as B in this Example) of the remain of the whole body was measured in the same manner as above.
The same procedures as above were performed to calculate radioactive accumulation per unit weight of brain (% ID/g) at the respective time points (Comparative Example 2).
Three animals were used for Example 15, Example 16 and Reference Example 2 at the respective time points.

[2] = biological target: T1, intracerebral amyloid (Homo sapiens, UniProt P05067); experiment: Confirmation of imaging of amyloid in brain (autoradiogram of brain slice, amyloid injected into amygdaloid nucleus); format: in vivo, male Wistar rat; details: 60 minutes after intravenous injection
T1 construct: Aβ1-42 (manufactured by Wako); purchased Wako
Description: (§1) (1) Aβ1-42 (manufactured by Wako) was dissolved in phosphate buffer (pH 7.4) and shaken at 37° C. for 72 hours, to obtain a 1 mg/mL suspension of aggregated Aβ (hereinafter referred to as amyloid suspension in this Example).
(§2) (2) 2.5 μL (corresponding to 25 μg) of the amyloid suspension was injected under thiopental anesthesia into an amygdaloid nucleus on one side of a male Wistar rat (7-week old). As a control, 2.5 μL of a phosphate buffered physiological saline solution (pH 7.4) was injected into an amygdaloid nucleus on the other side of the rat. The rats were examined 1 day after the injection of the amyloid suspension and the phosphate buffered physiological saline solution (pH 7.4).
(§3) This sample solution was injected under thiopental anesthesia into the rat through the tail vein (dosage: 0.5 mL, dosed radioactivity: 16 MBq equivalent).
(§4) (4) Brain was removed 60 minutes after the injection to prepare a brain slice of 10 μm in thickness with a microtome (type: CM3050S, manufactured by LEICA). The brain slice was exposed to an imaging plate for 20 hours, and then image analysis was carried out by use of a Bio-imaging Analyzer (type: BAS-2500; manufactured by FUJIFILM Corporation).
(§5) (5) After the completion of the image analysis using the Bio-imaging Analyzer, pathological staining with Thioflavin T was carried out to perform imaging by use of a fluorescence microscope (manufactured by NIKON Corporation; type: TE2000-U model; excitation wavelength: 400-440 nm; detection wavelength: 470 nm).

[3] = tested on: intracerebral amyloid; experiment: as above; format: in vivo, male Wistar rat; details: 60 minutes after intravenous injection, control side
Description: as §1, §2, §3, §4, §5

[4] = Measurement of partition coefficient based on the octanol extraction method; details: octanol / 10 mmol/L phosphate buffer (pH 7.4)
Description: To 2 mL of octanol, 10 μL each of the prepared sample solutions was respectively added, and 2 mL of a 10 mmol/L phosphate buffer (pH 7.4) was further added, followed by stirring for 30 seconds. After the mixture was centrifuged with a low-speed centrifuge (2000 rpm×60 min.), the octanol layer and the water layer were sampled each in an amount of 1 mL, and subjected to measurement of radioactivity count with an autowell gamma system (Type: ARC-301B, manufactured by Aloka). Using the obtained radioactivity count, logPoctanol was calculated in accordance with the equation (2).

[5] = [11C]-labeled, rats; cited from earlier work
[6] = biological target: amyloid (aggregated Aβ1-42) (Homo sapiens, UniProt P05067)
From the text: Affinity of the present compounds with amyloid was examined by the following in vitro binding tests.

[7] = [125I]-labeled, normal mice; cited from earlier work
[8] = tested on: amyloid; details: [125I]-labeled compounds; cited from earlier work

T1 sequence (P05067 672-713): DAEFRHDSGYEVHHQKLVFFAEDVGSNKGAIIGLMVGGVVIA
Chain of amyloid (aggregated Aβ1-42) (P05067 672-713): as above

SMILES	Radioactive accumulation per unit weight of brain, after 2 min. [1]	Radioactive accumulation per unit weight of brain, after 5 min. [1]	Radioactive accumulation per unit weight of brain, after 30 min. [1]	Radioactive accumulation per unit weight of brain, after 60 min. [1]	Accumulation of radioactivity in the amygdaloid nucleus on the side injected with amyloid suspension [2]	Accumulation of radioactivity in the amygdaloid nucleus on the side injected with physiological saline solution [3]	logPoctanol value [4]	Clearance from normal tissues [7]	Transfer into brain [7]	further results
COc1ccc2nc(-c3ccc([123I])cc3)cn2c1	1.26 % ID/g	0.89 % ID/g	0.19 % ID/g	0.09 % ID/g	marked accumulation of radioactivity	no significant accumulation of radioactivity	2.3	–	–	–
CNc1ccc(/C=C/c2ccc(O)cc2)cc1 [SB-13, (E)-4-methylamino-4′-hydroxystilbene]	–	–	–	–	–	–	–	–	–	Clearance from normal tissues [5]: it cannot be said that the clearance is sufficiently fast
COc1ccc2nc(-c3ccc([125I])cc3)cn2c1 [[^125I]-2-(4′-iodophenyl)-6-methoxyimidazo[1,2-a]pyridine]	–	–	–	–	–	–	–	–	–	Binding to amyloid [6]: capable of binding to amyloid; Radioactive count (A−B) specifically binding to amyloid versus amyloid concentration ([6]; amyloid 25, 62.5, 250, 625 and 1000 nmol/L, 22° C., 3 hours): showed a tendency to increase with increment of the concentration of amyloid
CN(C)c1ccc(/C=C/c2ccc(I)cc2)cc1 [m-I-SB, (E)-4-dimethylamino-4′-iodostilbene]	–	–	–	–	–	–	–	insufficient in clearance from normal tissues	transferred into brain 2 minutes after administration	–
CN(C)c1ccc(-c2cn3cc([123I])ccc3n2)cc1 [[^123I]-IMPY, reference compound]	1.19 % ID/g	0.97 % ID/g	0.23 % ID/g	0.09 % ID/g	–	–	1.9	–	–	–
Fc1ccc(-c2cn3cc([123I])ccc3n2)cc1	1.00 % ID/g	0.72 % ID/g	0.12 % ID/g	0.05 % ID/g	marked accumulation of radioactivity	no significant accumulation of radioactivity	2.3	–	–	–
CN(C)c1ccc(-c2nc3ccc(I)cc3o2)cc1 [IBOX, 6-iodo-2-[4′-(N,N-dimethylamino)phenyl]benzoxazole]	–	–	–	–	–	–	–	insufficient in clearance from normal tissues	transferred into brain 2 minutes after administration	–
CN(C)c1ccc(-c2cn3cc(I)ccc3n2)cc1 [IMPY, 6-iodo-2-[4′-(N,N-dimethylamino)phenyl]imidazo[1,2-a]pyridine]	–	–	–	–	–	–	–	–	–	Clearance from normal tissues [8]: rapid clearance from normal tissues; Transfer to brain and accumulation at amyloid [8]: transferring to brain and accumulating at amyloid after administration
COc1ccc(-c2cn3cc([123I])ccc3n2)cc1	1.04 % ID/g	0.72 % ID/g	0.12 % ID/g	0.04 % ID/g	marked accumulation of radioactivity	no significant accumulation of radioactivity	1.7	–	–	–
CN(C)c1ccc(-c2nc3ccc(I)cc3s2)cc1 [TZDM, 6-iodo-2-[4′-(N,N-dimethylamino)phenyl]benzothiazole]	–	–	–	–	–	–	–	insufficient in clearance from normal tissues	transferred into brain 2 minutes after administration	–
